*1 amine or outer side, *2 acyl side, *3 side chain or, on linkers, in order; H or OH if unused. Where a SMILES comes first, the peptide text is derived from it. Bridges are numbered along the chain shown (N, C = ends). Roman numbers before positions name the chains, in order. [ ]: non-standard residue; d: D form. Actinocin(1to9) = Cc1c2oc3c(C)ccc(C(=O)[*:2])c3nc-2c(C(=O)[*:1])c(N)c1=O; NMeV = CN[C@H](C(=O)O)C(C)C; Sar = CNCC(=O)O
What was measured:
[1] = DRUGMATRIX: Sodium/nucleoside co-transporter radioligand binding (ligand: nitrobenzylthioinosine); format: cell membranes, Cavia porcellus, Dunkin-Hartley, Cerebral cortex, Membrane; conditions: Not Active = under 50% inhibition at 10 µM
[2] = target: Sodium-dependent noradrenaline transporter (Homo sapiens, UniProt P23975); test: DRUGMATRIX: Norepinephrine Transporter radioligand binding (ligand: [125I] RTI-55); format: cell membranes, MDCK, Membrane; conditions: mdck; Not Active = under 50% inhibition at 10 µM
Chain of Sodium-dependent noradrenaline transporter (P23975 whole entry): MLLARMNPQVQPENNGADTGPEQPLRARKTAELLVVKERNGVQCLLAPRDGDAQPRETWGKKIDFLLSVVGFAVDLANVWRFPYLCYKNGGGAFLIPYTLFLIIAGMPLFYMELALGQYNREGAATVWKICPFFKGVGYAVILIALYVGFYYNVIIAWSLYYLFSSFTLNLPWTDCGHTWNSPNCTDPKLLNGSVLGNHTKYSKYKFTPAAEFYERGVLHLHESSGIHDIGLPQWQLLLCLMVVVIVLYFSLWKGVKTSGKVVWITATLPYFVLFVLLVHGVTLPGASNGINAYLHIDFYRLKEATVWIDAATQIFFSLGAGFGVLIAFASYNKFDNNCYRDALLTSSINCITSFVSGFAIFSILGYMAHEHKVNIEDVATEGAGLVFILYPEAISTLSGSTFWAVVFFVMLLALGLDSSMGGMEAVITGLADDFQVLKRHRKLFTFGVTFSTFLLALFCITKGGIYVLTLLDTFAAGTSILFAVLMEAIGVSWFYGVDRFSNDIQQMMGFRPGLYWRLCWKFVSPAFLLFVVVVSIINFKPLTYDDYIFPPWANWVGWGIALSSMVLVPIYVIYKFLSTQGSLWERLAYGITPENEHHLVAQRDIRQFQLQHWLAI

[3] = DRUGMATRIX: Glutamate, AMPA radioligand binding (ligand: [3H] AMPA); format: cell membranes, Rattus norvegicus, Wistar, Cerebral cortex, Membrane; conditions: Not Active = under 50% inhibition at 10 µM
[4] = target: T1, Muscarinic acetylcholine receptor M5 (Homo sapiens, UniProt P08912); format: cell membranes, CHO-K1, Membrane; further: in other assays of this panel Not Active means under 50% inhibition at 10 µM
T1 sequence (P08912 whole entry): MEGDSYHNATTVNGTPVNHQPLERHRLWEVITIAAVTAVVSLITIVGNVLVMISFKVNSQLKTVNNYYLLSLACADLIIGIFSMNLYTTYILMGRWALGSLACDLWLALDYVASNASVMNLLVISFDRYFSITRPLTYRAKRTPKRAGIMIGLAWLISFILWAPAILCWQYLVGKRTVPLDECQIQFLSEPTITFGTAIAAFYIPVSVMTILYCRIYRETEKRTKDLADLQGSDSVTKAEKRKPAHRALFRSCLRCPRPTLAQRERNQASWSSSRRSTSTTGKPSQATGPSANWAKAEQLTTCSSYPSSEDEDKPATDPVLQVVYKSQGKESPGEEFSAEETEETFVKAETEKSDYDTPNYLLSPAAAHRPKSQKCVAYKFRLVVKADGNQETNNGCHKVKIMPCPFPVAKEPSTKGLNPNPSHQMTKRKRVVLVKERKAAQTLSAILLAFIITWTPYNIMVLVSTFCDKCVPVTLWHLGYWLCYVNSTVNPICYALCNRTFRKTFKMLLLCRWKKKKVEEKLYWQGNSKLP

[5] = target: T2, Neuropeptide Y receptor type 2 (Homo sapiens, UniProt P49146); format: cell membranes, Membrane; conditions: kan-ts; further: in other assays of this panel Not Active means under 50% inhibition at 10 µM
T2 sequence (P49146 whole entry): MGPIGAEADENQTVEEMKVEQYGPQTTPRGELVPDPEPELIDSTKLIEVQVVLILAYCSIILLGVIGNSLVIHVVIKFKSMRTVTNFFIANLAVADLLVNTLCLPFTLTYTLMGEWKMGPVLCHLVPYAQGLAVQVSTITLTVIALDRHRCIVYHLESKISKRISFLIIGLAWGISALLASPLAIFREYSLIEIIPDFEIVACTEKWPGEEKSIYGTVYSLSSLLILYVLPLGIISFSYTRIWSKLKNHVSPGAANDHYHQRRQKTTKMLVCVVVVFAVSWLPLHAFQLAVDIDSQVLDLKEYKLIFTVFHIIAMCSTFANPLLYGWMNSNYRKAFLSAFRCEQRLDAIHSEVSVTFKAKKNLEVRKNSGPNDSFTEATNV

[6] = target: T3, Caspase-1 (Homo sapiens, UniProt P29466); parameters: species or system Escherichia coli;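 further: Caspase-1 enzyme inhibition assay with a peptide substrate; in other assays of this panel Not Active means under 50% inhibition at 10 µM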
T3 sequence (P29466 whole entry): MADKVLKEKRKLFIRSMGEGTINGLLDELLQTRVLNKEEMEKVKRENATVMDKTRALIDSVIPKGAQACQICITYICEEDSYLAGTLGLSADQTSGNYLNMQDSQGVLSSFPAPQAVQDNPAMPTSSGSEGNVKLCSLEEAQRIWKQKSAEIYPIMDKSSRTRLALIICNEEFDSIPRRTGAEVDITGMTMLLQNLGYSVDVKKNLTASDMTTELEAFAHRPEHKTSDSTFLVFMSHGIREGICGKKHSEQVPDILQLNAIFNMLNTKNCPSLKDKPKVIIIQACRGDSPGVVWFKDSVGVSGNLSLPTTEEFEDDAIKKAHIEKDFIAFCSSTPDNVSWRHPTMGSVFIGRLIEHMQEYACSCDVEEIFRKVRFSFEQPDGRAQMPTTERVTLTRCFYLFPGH

[7] = target: Cytochrome P450 3A4 (Homo sapiens, UniProt P08684); conditions: bti-tn-5b1-4; further: in other assays of this panel Not Active means under 50% inhibition at 10 µM
Chain of Cytochrome P450 3A4 (P08684 whole entry): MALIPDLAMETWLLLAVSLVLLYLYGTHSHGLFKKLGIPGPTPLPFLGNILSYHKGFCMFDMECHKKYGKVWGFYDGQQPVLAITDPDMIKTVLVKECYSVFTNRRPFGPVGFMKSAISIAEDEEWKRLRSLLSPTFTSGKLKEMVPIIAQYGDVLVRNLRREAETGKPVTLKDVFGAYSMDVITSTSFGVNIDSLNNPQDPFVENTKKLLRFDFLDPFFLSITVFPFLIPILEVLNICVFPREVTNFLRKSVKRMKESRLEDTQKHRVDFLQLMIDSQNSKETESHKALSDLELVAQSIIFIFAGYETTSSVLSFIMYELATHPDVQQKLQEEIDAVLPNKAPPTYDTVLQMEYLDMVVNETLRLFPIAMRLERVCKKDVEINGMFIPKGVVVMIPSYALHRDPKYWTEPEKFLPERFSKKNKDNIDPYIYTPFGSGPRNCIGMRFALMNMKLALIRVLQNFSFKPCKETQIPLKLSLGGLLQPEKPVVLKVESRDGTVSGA

Structure (SMILES) | IC50 [1] | Ki [1] | IC50 [2] | IC50 [3] | Ki [3] | IC50 ([4]; cho-k1) | IC50 [5] | IC50 [6] | IC50 [7] | Ki [7] | IC50 ([4]; read-out: IC50) [nM] | Ki ([4]; read-out: Ki) [nM]
CC(C)(C)NCC(O)c1cc(Cl)c(N)c(Cl)c1 (stereo unspecified) [CLENBUTEROL] | Not Active | Not Active | Not Active | Not Active | Not Active | Not Active | Not Active | Not Active | Not Active | Not Active |  | 
Clc1cccc(Cl)c1NC1=NCCN1 [CLONIDINE] | Not Active | Not Active | Not Active | Not Active | Not Active | Not Active | Not Active | Not Active | Not Active | Not Active |  | 
Cc1onc(-c2ccccc2Cl)c1C(=O)N[C@@H]1C(=O)N2[C@@H]1SC(C)(C)[C@@H]2C(=O)O [CLOXACILLIN] | Not Active | Not Active | Not Active | Not Active | Not Active | Not Active | Not Active | Not Active | Not Active | Not Active |  | 
CC1CC(OC(=O)C(O)c2ccccc2)CC(C)(C)C1 (stereo unspecified) [CYCLANDELATE] | Not Active | Not Active | Not Active | Not Active | Not Active | Not Active | Not Active | Not Active | Not Active | Not Active |  | 
Cc1c2oc3c(C)ccc(C(=O)N[C@@H]4C(=O)N[C@H](C(C)C)C(=O)N5CCC[C@H]5C(=O)N(C)CC(=O)N(C)[C@@H](C(C)C)C(=O)O[C@@H]4C)c3nc-2c(C(=O)N[C@@H]2C(=O)N[C@H](C(C)C)C(=O)N3CCC[C@H]3C(=O)N(C)CC(=O)N(C)[C@@H](C(C)C)C(=O)O[C@@H]2C)c(N)c1=O [DACTINOMYCIN] (I: T[dV]P[Sar][NMeV] / II: T[dV]P[Sar][NMeV]; ester I:1-I:C, II:1-II:C; linker I:N-II:N via Actinocin(1to9)) | Not Active | Not Active | Not Active | Not Active | Not Active | Not Active | Not Active | Not Active | Not Active | Not Active |  | 
Cc1c(O)c(=O)ccn1C [DEFERIPRONE] | Not Active | Not Active | Not Active | Not Active | Not Active | Not Active | Not Active | Not Active | Not Active | Not Active |  | 
O=c1oc2ccccc2c(O)c1Cc1c(O)c2ccccc2oc1=O [DICUMAROL] | Not Active | Not Active | Not Active | Not Active | Not Active | Not Active | Not Active | Not Active | Not Active | Not Active |  | 
C[C@H]1O[C@@H](O[C@H]2[C@@H](O)C[C@H](O[C@H]3[C@@H](O)C[C@H](O[C@H]4CC[C@@]5(C)[C@H](CC[C@@H]6[C@@H]5C[C@@H](O)[C@]5(C)[C@@H](C7=CC(=O)OC7)CC[C@]65O)C4)O[C@@H]3C)O[C@@H]2C)C[C@H](O)[C@@H]1O [DIGOXIN] | Not Active | Not Active | Not Active | Not Active | Not Active | Not Active | Not Active | Not Active | Not Active | Not Active |  | 
C[C@H]1c2cccc(O)c2C(=O)C2=C(O)[C@]3(O)C(=O)C(C(N)=O)=C(O)[C@@H](N(C)C)[C@@H]3[C@@H](O)[C@@H]21.O [DOXYCYCLINE] | Not Active | Not Active | Not Active | Not Active | Not Active | Not Active | Not Active | Not Active | Not Active | Not Active |  | 
O=C(CCCN1CC=C(n2c(=O)[nH]c3ccccc32)CC1)c1ccc(F)cc1 [DROPERIDOL] | Not Active | Not Active | Not Active | Not Active | Not Active |  | Not Active | Not Active | Not Active | Not Active | 2300 | 1650
OC(Cn1cncn1)(Cn1cncn1)c1ccc(F)cc1F [FLUCONAZOLE] | Not Active | Not Active | Not Active | Not Active | Not Active | Not Active | Not Active | Not Active | Not Active | Not Active |  | 
CC(C)C(=O)Nc1ccc([N+](=O)[O-])c(C(F)(F)F)c1 [FLUTAMIDE] | Not Active | Not Active | Not Active | Not Active | Not Active | Not Active | Not Active | Not Active | Not Active | Not Active |  | 
CC1(C)O[C@@H]2C[C@H]3[C@@H]4CCC5=CC(=O)CC[C@]5(C)[C@@]4(F)[C@@H](O)C[C@]3(C)[C@]2(C(=O)CCl)O1 [HALCINONIDE] | Not Active | Not Active | Not Active | Not Active | Not Active | Not Active | Not Active | Not Active | Not Active | Not Active |  | 
O=c1[nH]c(=O)n([C@H]2C[C@H](O)[C@@H](CO)O2)cc1I [IDOXURIDINE] | Not Active | Not Active | Not Active | Not Active | Not Active | Not Active | Not Active | Not Active | Not Active | Not Active |  | 
CC1Cc2ccccc2N1NC(=O)c1ccc(Cl)c(S(N)(=O)=O)c1 (stereo unspecified) [INDAPAMIDE] | Not Active | Not Active | Not Active | Not Active | Not Active | Not Active | Not Active | Not Active | Not Active | Not Active |  | 
Nc1nc(N)nc(-c2cc(Cl)ccc2Cl)n1.O=C(O)/C=C\C(=O)O [IRSOGLADINE MALEATE] | Not Active | Not Active | Not Active | Not Active | Not Active | Not Active | Not Active | Not Active | Not Active | Not Active |  | 
CCCCN1CCCC[C@H]1C(=O)Nc1c(C)cccc1C [LEVOBUPIVACAINE] | Not Active | Not Active | Not Active | Not Active | Not Active | Not Active | Not Active | Not Active | Not Active | Not Active |  | 
CCCCc1nc(Cl)c(CO)n1Cc1ccc(-c2ccccc2-c2nnn[nH]2)cc1 [LOSARTAN] | Not Active | Not Active | Not Active | Not Active | Not Active | Not Active | Not Active | Not Active | Not Active | Not Active |  | 
Sc1ncnc2nc[nH]c12 [MERCAPTOPURINE ANHYDROUS] | Not Active | Not Active | Not Active | Not Active | Not Active | Not Active | Not Active | Not Active | Not Active | Not Active |  | 
C[C@](N)(Cc1ccc(O)c(O)c1)C(=O)O [METHYLDOPA] | Not Active | Not Active | Not Active | Not Active | Not Active | Not Active | Not Active | Not Active | Not Active | Not Active |  | 

— ChEMBL document CHEMBL1909046, “DrugMatrix in vitro pharmacology data”
